From patent publication US10874743B2, “IRAK degraders and uses thereof” (Kymera Therapeutics, Inc., priority 2017, dated 2020)

Biological target: T1, IRAK4 (Homo sapiens, UniProt Q9NWZ3)
T1 sequence (Q9NWZ3 1-460): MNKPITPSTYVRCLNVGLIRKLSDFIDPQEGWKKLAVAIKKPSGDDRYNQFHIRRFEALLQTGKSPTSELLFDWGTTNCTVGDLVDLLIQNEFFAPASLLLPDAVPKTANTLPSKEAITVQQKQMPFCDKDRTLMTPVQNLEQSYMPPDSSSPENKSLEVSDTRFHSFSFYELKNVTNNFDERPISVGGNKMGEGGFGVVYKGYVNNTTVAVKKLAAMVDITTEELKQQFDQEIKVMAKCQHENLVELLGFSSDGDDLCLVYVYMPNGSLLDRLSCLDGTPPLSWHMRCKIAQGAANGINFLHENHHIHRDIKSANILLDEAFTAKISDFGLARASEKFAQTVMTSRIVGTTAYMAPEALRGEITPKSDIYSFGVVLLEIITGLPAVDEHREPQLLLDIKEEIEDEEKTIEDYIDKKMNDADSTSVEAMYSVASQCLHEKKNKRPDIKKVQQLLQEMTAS
Assay: OCI-LY-10 degradation assay (western blot, % IRAK4 degraded after 4 hours)
Type: cell-based
Parameters: endogenous in cells; host or cells: OCI-LY10
Conditions: OCI-LY10 cells; for OCI-LY10 % IRAK4 Degradation (0.01 uM) / OCI-LY10 % IRAK4 Degradation (0.1 uM) / OCI-LY10 % IRAK4 Degradation (1 uM): 4 hours; for OCI-LY10 % IRAK4 Degradation (0.01 uM): 0.01 uM compound; for OCI-LY10 % IRAK4 Degradation (0.1 uM): 0.1 uM compound; for OCI-LY10 % IRAK4 Degradation (1 uM): 1 uM compound; for OCI-LY10 % IRAK4 Degradation: IRAK4 degraded after 4 hours, western blot
Procedure: Compounds were reconstituted in DMSO to make stock solutions at concentration of 60 mM. THP-1 and OCI-LY10 cells were maintained in RPMI-1640 medium containing 10% FBS, 0.5 μM 2-ME or 20% FBS, 55 μM 2-ME, and 1% L-Glutamine respectively.
Cells were seeded into 6-well plates with 5e6 cells per well. 200 μL of diluted compounds were added to cells to the final concentration of 0.003-10 μM. After 4 or 24 hour-incubation at 37° C., cells were collected into 2 mL Eppendorf tubes and centrifuged at 1,000 rpm for 5 min. The cell pellets were washed with 1×DPBS once and resuspended in 60 μL lysis buffer. The cells were lysed on ice for 10 min, then centrifuged at 14,000 rpm for 10 min at 4° C. and the supernatants were collected for western blots. For THP-1 cells, the lysis buffer contained 40 mM pH 7.4 HEPES, 140 mM NaCl, 2.5 mM EDTA, 1% NP-40, 0.1% SDS, and protease inhibitor cocktail (Roche, Cat. No. 05892791001). For OCI-LY10 cells, RIPAbuffer (Thermo Fisher, 89900) with Halt Protease and Phosphatase Inhibitor Cocktail (Thermo Fisher, 78446) was applied.
The protein concentration of cell lysates was quantified with Pierce™ BCA Protein Assay Kit (Pierce, 23227). Albumin standards at different concentrations were prepared, involving 2,000 ug/mL, 1,500 ug/mL, 1,000 ug/mL, 750 ug/mL, 500 ug/mL, 250 ug/mL, 125 ug/mL, and 25 ug/mL. BCA working reagents were prepared by mixing BCA reagent A with reagent B in 50:1 ratio. 200 μL of the BCA working reagents were added to 25 μL of BCA standard or cell lysates in microplate, and mixed thoroughly on a plate shaker for 30 seconds. After incubation at 37° C. for 30 min, the absorbance of samples at 562 nm were measured with EnVision Plate Reader.
Protein lysates were prepared in NuPAGE™ LDS sample buffer and NuPAGE™ sample reducing agent, and incubated at 95° C. for 5 min. For western blots, 20-25 μg of total proteins were resolved in 4-12% Bis-Tris gels (Introgen, WG1403A) or 10% Bis-Tris Midi gels (Invitrogen, WG1202BOX) running with 1×MOPS SDS running buffer (Invitrogen, NP0001) or 1×MES SDS running buffer (Invitrogen, NP0002). The proteins were transferred to low fluorescence PVDF membranes using the Trans-Blot Turbo Transfer System. Membranes were then blocked in Odyssey blocking buffer at RT for 1 h followed by primary incubation at 4° C. overnight. The primary antibodies were IRAK1 rabbit monoclonal antibody (CST, #4504S, 1:500), IRAK3 rabbit polyclonal antibody (CST, #4369, 1:500), IRAK4 rabbit polyclonal antibody (CST, #4363S, 1:1,000), MyD88 rabbit monoclonal antibody (Abcam, Ab133739, 1:2,000), j3-actin mouse monoclonal antibody (Sigma, A5441, 10,000), and Gapdh mouse monoclonal antibody (Millipore, MAB374, 1:5,000). Membranes were washed three times with 1×TBST, and then incubated with IR Dye 800 CW Goat anti-rabbit (Licor, #926-32211) and IR Dye 700 CW Goat anti-mouse (Licor, #926-68070) secondary antibodies in 1:10,000 dilution at RT for 1 h. The western blot images were obtained using Odyssey Imaging System.
OCI-LY-10 results at 4 hours. The letter codes indicate the percentage of IRAK4 degraded after 4 hours: A (>50% degradation), B (>20-50% degradation) and C (<20% degradation)
OCI-LY-10 results at 4 hours. The letter codes for % IRAK4 degradation indicate the percentage of IRAK4 degraded after 4 hours across three different concentrations: A (>50% degradation), B (>20-50% degradation) and C (<20% degradation).

SMILES | OCI-LY10 % IRAK4 Degradation (0.01 uM) | OCI-LY10 % IRAK4 Degradation (0.1 uM) | OCI-LY10 % IRAK4 Degradation (1 uM) | OCI-LY10 % IRAK4 Degradation
O=C1CCC(N2C(=O)c3cccc(CCOCCN4CCC(n5cc(NC(=O)c6coc(-c7ccnc(NCC8CC8)c7)n6)c(C(F)F)n5)CC4)c3C2=O)C(=O)N1 (centres unmarked) [I-257] | C (<20% degradation) | C (<20% degradation) | C (<20% degradation) | –
O=C1CCC(N2C(=O)c3ccc(CCCCCN4CCC(n5cc(NC(=O)c6coc(-c7ccnc(NCC8CC8)c7)n6)c(C(F)F)n5)CC4)cc3C2=O)C(=O)N1 (centres unmarked) [I-263] | C (<20% degradation) | C (<20% degradation) | C (<20% degradation) | –
CN(CCNCCCc1cccc2c1C(=O)N(C1CCC(=O)NC1=O)C2=O)C(=O)c1ccc(-n2cc(NC(=O)c3coc(-c4ccncc4)n3)c(C(F)F)n2)cc1 (centres unmarked) [I-364] | C (<20% degradation) | C (<20% degradation) | C (<20% degradation) | –
O=C1CCC(N2C(=O)c3cccc(NCCOCCOCCNC(=O)c4ccc(-n5cc(NC(=O)c6coc(-c7ccnc(NCC8CC8)c7)n6)c(C(F)(F)F)n5)cc4)c3C2=O)C(=O)N1 (centres unmarked) [I-220] | B (>20-50% degradation) | B (>20-50% degradation) | B (>20-50% degradation) | –
CN(CCOCCOCCCc1ccc2c(c1)C(=O)N(C1CCC(=O)NC1=O)C2=O)Cc1ccc(-n2cc(NC(=O)c3coc(-c4ccnc(NCC5CC5)c4)n3)c(C(F)F)n2)cc1 (centres unmarked) [I-310] | C (<20% degradation) | A (>50% degradation) | A (>50% degradation) | –
O=C1CCC(N2C(=O)c3cccc(NCCOCCN4CCN(CCOCCNCc5ccc(-n6cc(NC(=O)c7coc(-c8ccnc(NCC9CC9)c8)n7)c(C(F)F)n6)cc5)CC4)c3C2=O)C(=O)N1 (centres unmarked) [I-348] | C (<20% degradation) | C (<20% degradation) | A (>50% degradation) | –
N#Cc1cnc2c(cnn2-c2cc(NC3CC3)c(C(=O)NCC(F)COCCCCCNC(=O)COc3cccc4c3C(=O)N(C3CCC(=O)NC3=O)C4=O)cn2)c1 (centres unmarked) [I-102] | – | – | – | C (<20% degradation)
CN(CCCc1cccc2c1C(=O)N(C1CCC(=O)NC1=O)C2=O)Cc1ccc(-n2cc(NC(=O)c3coc(-c4ccnc(NCC5CC5)c4)n3)c(C(F)F)n2)cc1 (centres unmarked) [I-355] | B (>20-50% degradation) | B (>20-50% degradation) | C (<20% degradation) | –
NC(=O)c1nn(-c2ccc(CNCCCCCCCCCc3cccc4c3C(=O)N(C3CCC(=O)NC3=O)C4=O)cc2)cc1NC(=O)c1coc(-c2ccnc(NCC3CC3)c2)n1 (centres unmarked) [I-317] | C (<20% degradation) | C (<20% degradation) | B (>20-50% degradation) | –
CC(C)(OCCCOCCCNc1cccc2c1C(=O)N(C1CCC(=O)NC1=O)C2=O)C(F)CNC(=O)c1cnc(-n2ncc3cc(C#N)cnc32)cc1NC1CC1 (centres unmarked) [I-86] | – | – | – | C (<20% degradation)
O=C1CCC(N2C(=O)c3cccc(NCCNCCOCCNC(=O)c4ccc(-n5cc(NC(=O)c6coc(-c7ccnc(NCC8CC8)c7)n6)c(C(F)(F)F)n5)cc4)c3C2=O)C(=O)N1 (centres unmarked) [I-222] | A (>50% degradation) | A (>50% degradation) | A (>50% degradation) | –
O=C1CCC(N2C(=O)c3ccc(OCc4cn(CCOCCOCCNCc5ccc(-n6cc(NC(=O)c7coc(-c8ccnc(NCC9CC9)c8)n7)c(C(F)F)n6)cc5)nn4)cc3C2=O)C(=O)N1 (centres unmarked) [I-345] | C (<20% degradation) | A (>50% degradation) | A (>50% degradation) | –
O=C1CCC(N2C(=O)c3cccc(N4CCN(CCOCCOCCOCCNC(=O)c5ccc(-n6cc(NC(=O)c7coc(-c8ccnc(NCC9CC9)c8)n7)c(C(F)F)n6)cc5)CC4)c3C2=O)C(=O)N1 (centres unmarked) [I-275] | C (<20% degradation) | B (>20-50% degradation) | A (>50% degradation) | –
O=C1CCC(N2C(=O)c3cccc(NCCc4cnnn4CCOCCOCCNCc4ccc(-n5cc(NC(=O)c6coc(-c7ccnc(NCC8CC8)c7)n6)c(C(F)F)n5)cc4)c3C2=O)C(=O)N1 (centres unmarked) [I-342] | C (<20% degradation) | B (>20-50% degradation) | A (>50% degradation) | –
N#Cc1cnc2c(cnn2-c2cc(NC3CC3)c(C(=O)NCC(F)COc3cccc4c3C(=O)N(C3CCC(=O)NC3=O)C4=O)cn2)c1 (centres unmarked) [I-173, 6-(5-Cyanopyrazolo[3,4-b]pyridin-1-yl)-4-(cyclopropylamino)-N-[3-[2-(2,6-dioxo-3-piperidyl)-1,3-dioxo-isoindolin-4-yl]oxy-2-fluoro-propyl]pyridine-3-carboxamide] | – | – | – | C (<20% degradation)
CC(C)(OCCOCCOCCOCCNc1cccc2c1C(=O)N(C1CCC(=O)NC1=O)C2=O)C(F)CNC(=O)c1cnc(-n2ncc3cc(C#N)cnc32)cc1NC1CC1 (centres unmarked) [I-73] | – | – | – | C (<20% degradation)
N#Cc1cnc2c(cnn2-c2cc(NC3CC3)c(C(=O)N[C@H]3CC[C@H](COCCOCCOCCOCCOCCNc4cccc5c4C(=O)N(C4CCC(=O)NC4=O)C5=O)CC3)cn2)c1 (some centres unmarked) [I-33] | – | – | – | C (<20% degradation)
CN(CCOCCOCCCc1cccc2c1C(=O)N(C1CCC(=O)NC1=O)C2=O)C(=O)c1ccc(-n2cc(NC(=O)c3coc(-c4ccncc4)n3)c(C(N)=O)n2)cc1 (centres unmarked) [I-226] | B (>20-50% degradation) | A (>50% degradation) | A (>50% degradation) | –
CN(CCCc1cccc2c1C(=O)N(C1CCC(=O)NC1=O)C2=O)Cc1ccc(-n2cc(NC(=O)c3coc(-c4ccncc4)n3)c(C(F)F)n2)cc1 (centres unmarked) [I-365] | C (<20% degradation) | C (<20% degradation) | C (<20% degradation) | –
O=C1CCC(N2C(=O)c3ccc(CCCOCCNCc4ccc(-n5cc(NC(=O)c6coc(-c7ccncc7)n6)c(C(F)F)n5)cc4)cc3C2=O)C(=O)N1 (centres unmarked) [I-382] | C (<20% degradation) | C (<20% degradation) | B (>20-50% degradation) | –
